For 27 compounds, IC50 results are on record in patent publication US11084829B2, “Ubiquitin-specific-processing protease 7 (USP7) modulators and uses thereof” (RAPT THERAPEUTICS, INC., priority 2018, dated 2021).

For this assay, the target named is USP7 (Homo sapiens, UniProt Q93009). Put plainly: USP7 inhibitory potency (IC50). It counts as biochemical. On the procedure:
Activity for compounds described herein is provided in Table 2, wherein potency levels are provided as follows: (Potency: USP7 IC50: A<0.01 μM; B=0.01-0.1 μM; C=>0.1 μM.

Broadly, the IC50 is the concentration needed to halve the response being measured. Read a high IC50 as weaker potency in that assay.

Sequence of USP7 (Q93009 whole entry): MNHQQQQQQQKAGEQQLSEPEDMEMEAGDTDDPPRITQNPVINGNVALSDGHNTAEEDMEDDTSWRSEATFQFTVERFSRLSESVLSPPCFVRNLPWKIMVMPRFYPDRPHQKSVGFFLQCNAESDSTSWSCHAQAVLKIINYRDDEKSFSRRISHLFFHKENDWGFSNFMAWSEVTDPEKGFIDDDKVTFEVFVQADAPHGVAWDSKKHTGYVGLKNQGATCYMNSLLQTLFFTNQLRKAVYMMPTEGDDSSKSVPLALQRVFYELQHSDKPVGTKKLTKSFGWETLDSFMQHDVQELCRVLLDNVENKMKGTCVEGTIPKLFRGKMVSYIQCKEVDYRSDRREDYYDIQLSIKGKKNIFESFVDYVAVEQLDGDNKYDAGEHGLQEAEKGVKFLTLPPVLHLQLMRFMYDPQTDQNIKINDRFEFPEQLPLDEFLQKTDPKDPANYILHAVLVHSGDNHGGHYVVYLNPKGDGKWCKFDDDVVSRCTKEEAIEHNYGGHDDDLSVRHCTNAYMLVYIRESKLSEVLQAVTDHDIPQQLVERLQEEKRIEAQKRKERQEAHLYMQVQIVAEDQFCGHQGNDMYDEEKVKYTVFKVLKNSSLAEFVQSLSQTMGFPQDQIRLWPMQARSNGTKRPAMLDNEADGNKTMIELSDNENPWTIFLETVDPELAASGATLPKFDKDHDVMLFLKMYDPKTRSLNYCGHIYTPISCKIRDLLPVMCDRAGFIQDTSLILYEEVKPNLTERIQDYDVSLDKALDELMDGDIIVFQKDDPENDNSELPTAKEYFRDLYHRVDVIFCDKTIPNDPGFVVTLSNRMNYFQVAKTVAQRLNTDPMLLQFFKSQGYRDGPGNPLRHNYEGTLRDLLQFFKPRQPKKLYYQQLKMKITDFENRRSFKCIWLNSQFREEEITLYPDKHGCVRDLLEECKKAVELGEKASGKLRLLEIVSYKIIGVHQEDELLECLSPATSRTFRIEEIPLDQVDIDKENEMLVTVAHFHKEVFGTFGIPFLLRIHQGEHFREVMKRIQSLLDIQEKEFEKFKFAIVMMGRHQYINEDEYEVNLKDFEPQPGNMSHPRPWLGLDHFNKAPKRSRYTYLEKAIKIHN

Turning to `Cc1cc(Cl)cc(-c2ccnc3cc(Cn4c(=O)ccn(C5CCC5)c4=O)sc23)c1CC1CNCCO1` (stereo not drawn) [Example 111, 3-((7-(5-chloro-3-methyl-2-(morpholin-2-ylmethyl)phenyl)thieno[3,2-b]pyridin-2-yl)methyl)-1-cyclobutylpyrimidine-2,4(1H,3H)-dione], the IC50 was < 10 nM.
The value for `Cc1cc(Cl)cc(-c2ccnc3cc(CN4C(=O)C5CC5C4=O)sc23)c1CN1C[C@@H](C)NC[C@H]1C` (stereo partly drawn) [Example 34, 3-((7-(5-chloro-2-(((2R,5R)-2,5-dimethylpiperazin-1-yl)methyl)-3-methylphenyl)thieno[3,2-b]pyridin-2-yl)methyl)-3-azabicyclo[3.1.0]hexane-2,4-dione] was < 10 nM.
As to `Cc1cc(Cl)cc(-c2ncnc3cc(Cn4ccc(=O)[nH]c4=O)sc23)c1C[C@@H]1CNCC(C)(C)O1` [Example 267, (R)-1-((4-(5-chloro-2-((6,6-dimethylmorpholin-2-yl)methyl)-3-methylphenyl)thieno[3,2-d]pyrimidin-6-yl)methyl)pyrimidine-2,4(1H,3H)-dione], the IC50 was < 10 nM.
`CC1(C)CNCC(Cc2c(Cl)cc(Cl)cc2-c2ncnc3cc(CN4C(=O)C5CC5C4=O)sc23)O1` (stereo not drawn) [Example 227, 3-((4-(3,5-dichloro-2-((6,6-dimethylmorpholin-2-yl)methyl)phenyl)thieno[3,2-d]pyrimidin-6-yl)methyl)-3-azabicyclo[3.1.0]hexane-2,4-dione]: the IC50 is < 10 nM.
To `Cc1cc(Cl)cc(-c2ncnc3cc(CN4C(=O)C5CC5C4=O)sc23)c1CN1[C@@H](C)CNC[C@@H]1C` (stereo partly drawn) [Example 57, 3-((4-(5-chloro-2-(((2S,6S)-2,6-dimethylpiperazin-1-yl)methyl)-3-methylphenyl)thieno[3,2-d]pyrimidin-6-yl)methyl)-3-azabicyclo[3.1.0]hexane-2,4-dione] belongs < 10 nM.
To `Cc1cc(Cl)cc(-c2ccnc3cc(CN4C(=O)C5CC5C4=O)sc23)c1CN1C[C@H](C)NC[C@H]1C` (stereo partly drawn) [Example 37, 3-((7-(5-chloro-2-(((2R,5 S)-2,5-dimethylpiperazin-1-yl)methyl)-3-methylphenyl)thieno[3,2-b]pyridin-2-yl)methyl)-3-azabicyclo[3.1.0]hexane-2,4-dione] belongs < 10 nM; to `Cc1cc(Cl)cc(-c2ncnc3cc(CN4C(=O)C5CC5C4=O)sc23)c1C[C@@H]1CN(C(=O)C(F)(F)F)CCO1` (stereo partly drawn) [Example 199, 3-((4-(5-chloro-3-methyl-2-(((R)-4-(2,2,2-trifluoroacetyl)morpholin-2-yl)methyl)phenyl)thieno[3,2-d]pyrimidin-6-yl)methyl)-3-azabicyclo[3.1.0]hexane-2,4-dione], < 10 nM.
To `Cc1cc(Cl)cc(-c2ccnc3c(F)c(CN4C(=O)CNC4=O)sc23)c1C[C@@H]1CNCCO1` [Example 147, (R)-3-((7-(5-chloro-3-methyl-2-(morpholin-2-ylmethyl)phenyl)-3-fluorothieno[3,2-b]pyridin-2-yl)methyl)imidazolidine-2,4-dione] belongs 10 to 100 nM.
In the case of `Cc1cc(Cl)cc(-c2ccnc3cc(CN4C(=O)C5C(C4=O)C5(C)C)sc23)c1CN1CCNC[C@@H]1C` (stereo partly drawn) [Example 20, 3-((7-(5-chloro-3-methyl-2-(((S)-2-methylpiperazin-1-yl)methyl)phenyl)thieno[3,2-b]pyridin-2-yl)methyl)-6,6-dimethyl-3-azabicyclo[3.1.0]hexane-2,4-dione], the IC50 was < 10 nM.
To `Cc1cc(Cl)cc(-c2ncnc3cc(CN4C(=O)CC[C@@H]4C(=O)O)sc23)c1C[C@@H]1CNCC(C)(C)O1` [Example 225, (R)-1-((4-(5-chloro-2-(((R)-6,6-dimethylmorpholin-2-yl)methyl)-3-methylphenyl)thieno[3,2-d]pyrimidin-6-yl)methyl)-5-oxopyrrolidine-2-carboxylic acid] belongs > 100 nM; to `C[C@H]1CNC[C@H](C)N1Cc1c(Cl)cc(Cl)cc1-c1ccnc2cc(CN3C(=O)CCN(C)C3=O)sc12` [Example 49, 3-((7-(3,5-dichloro-2-(((2S,6S)-2,6-dimethylpiperazin-1-yl)methyl)phenyl)thieno[3,2-b]pyridin-2-yl)methyl)-1-methyldihydropyrimidine-2,4(1H,3H)-dione], < 10 nM; to `Cc1cc(Cl)cc(-c2ncnc3cc(CN4C(=O)C5CC5C4=O)sc23)c1C[C@H]1CNCCO1` (stereo partly drawn) [Example 181, 3-((4-(5-chloro-3-methyl-2-(((S)-morpholin-2-yl)methyl)phenyl)thieno[3,2-d]pyrimidin-6-yl)methyl)-3-azabicyclo[3.1.0]hexane-2,4-dione], 10 to 100 nM.
As for `Cc1cc(Cl)cc(-c2ccnc3cc(CN4C(=O)CCN(C)C4=O)sc23)c1CC1CNCC2(CCC2)O1` (stereo not drawn) [Example 144, 3-((7-(2-((5-oxa-8-azaspiro[3.5]nonan-6-yl)methyl)-5-chloro-3-methylphenyl)thieno[3,2-b]pyridin-2-yl)methyl)-1-methyldihydropyrimidine-2,4(1H,3H)-dione], the IC50 is < 10 nM.
The value for `Cc1cc(Cl)cc(-c2ncnc3cc(CN4C(=O)OC[C@@H]4CO)sc23)c1C[C@@H]1CNCC(C)(C)O1` [Example 268, (S)-3-((4-(5-chloro-2-(((R)-6,6-dimethylmorpholin-2-yl)methyl)-3-methylphenyl)thieno[3,2-d]pyrimidin-6-yl)methyl)-4-(hydroxymethyl)oxazolidin-2-one] was < 10 nM.
The value for `Cc1cc(Cl)cc(-c2ncnc3cc(CN4C(=O)CCC4C)sc23)c1CN1[C@@H](C)CNC[C@@H]1C` (stereo partly drawn) [Example 91, 1-((4-(5-chloro-2-(((2S,6S)-2,6-dimethylpiperazin-1-yl)methyl)-3-methylphenyl)thieno[3,2-d]pyrimidin-6-yl)methyl)-5-methylpyrrolidin-2-one] was > 100 nM.
For `Cc1cc(Cl)cc(-c2ccnc3cc(CN4C(=O)CCC4=O)sc23)c1C[C@@H]1CNCC(C)(C)O1` [Example 136, (R)-1-((7-(5-chloro-2-((6,6-dimethylmorpholin-2-yl)methyl)-3-methylphenyl)thieno[3,2-b]pyridin-2-yl)methyl)pyrrolidine-2,5-dione], the IC50 is < 10 nM.
The value for `Cc1cc(Cl)cc(-c2ccnc3cc(Cn4c(=O)ccn(C)c4=O)sc23)c1CN1C[C@@H](C)NC[C@@H]1C` [Example 46, 3-((7-(5-chloro-2-(((2S,5R)-2,5-dimethylpiperazin-1-yl)methyl)-3-methylphenyl)thieno[3,2-b]pyridin-2-yl)methyl)-1-methylpyrimidine-2,4(1H,3H)-dione] was < 10 nM.
In the case of `Cc1cc(Cl)cc(-c2ccnc3cc(CN4C(=O)CCC4=O)sc23)c1CN1C[C@@H](C)NC[C@@H]1C` [Example 44, 1-((7-(5-chloro-2-(((2S,5R)-2,5-dimethylpiperazin-1-yl)methyl)-3-methylphenyl)thieno[3,2-b]pyridin-2-yl)methyl)pyrrolidine-2,5-dione], the IC50 is < 10 nM.
Compound `Cc1cc(Cl)cc(-c2ncnc3cc(CN4C(=O)C5C(C4=O)C5(C)C)sc23)c1CN1CCN(C)C[C@@H]1C` (stereo partly drawn) [Example 53, 3-((4-(5-chloro-2-(((S)-2,4-dimethylpiperazin-1-yl)methyl)-3-methylphenyl)thieno[3,2-d]pyrimidin-6-yl)methyl)-6,6-dimethyl-3-azabicyclo[3.1.0]hexane-2,4-dione] displayed a concentration for half-maximal inhibition (IC50) of 10 to 100 nM.
To `Cc1cc(Cl)cc(-c2ncnc3cc(CN4C(=O)CCNC4=O)sc23)c1C[C@@H]1CNCC(C)(C)O1` [Example 270, (R)-3-((4-(5-chloro-2-((6,6-dimethylmorpholin-2-yl)methyl)-3-methylphenyl)thieno[3,2-d]pyrimidin-6-yl)methyl)dihydropyrimidine-2,4(1H,3H)-dione] belongs < 10 nM.
In the case of `CN1CC(=O)N(Cc2cc3nccc(-c4cc(Cl)cc(Cl)c4CC4CNCCO4)c3s2)C1=O` (stereo not drawn) [Example 141, 3-((7-(3,5-dichloro-2-(morpholin-2-ylmethyl)phenyl)thieno[3,2-b]pyridin-2-yl)methyl)-1-methylimidazolidine-2,4-dione], the concentration for half-maximal inhibition (IC50) is < 10 nM.
The value for `Cc1cc(Cl)cc(-c2ncnc3cc(CN4C(=O)CN(C)C4=O)sc23)c1CN1[C@@H](C)CNC[C@@H]1C` [Example 87, 3-((4-(5-chloro-2-(((2S,6S)-2,6-dimethylpiperazin-1-yl)methyl)-3-methylphenyl)thieno[3,2-d]pyrimidin-6-yl)methyl)-1-methylimidazolidine-2,4-dione] was < 10 nM.
Consider `COC(=O)[C@H]1CCC(=O)N1Cc1cc2ncnc(-c3cc(Cl)cc(C)c3C[C@@H]3CNCC(C)(C)O3)c2s1` [Example 224, methyl (R)-1-((4-(5-chloro-2-(((R)-6,6-dimethylmorpholin-2-yl)methyl)-3-methylphenyl)thieno[3,2-d]pyrimidin-6-yl)methyl)-5-oxopyrrolidine-2-carboxylate], for which the concentration for half-maximal inhibition (IC50) was < 10 nM.
Regarding `C[C@H]1CNCCN1Cc1c(F)cc(Cl)cc1-c1ncnc2cc(CN3C(=O)C4CC4C3=O)sc12` (stereo partly drawn) [Example 61, 3-((4-(5-chloro-3-fluoro-2-(((S)-2-methylpiperazin-1-yl)methyl)phenyl)thieno[3,2-d]pyrimidin-6-yl)methyl)-3-azabicyclo[3.1.0]hexane-2,4-dione], the 50% inhibitory concentration (IC50) was in the range of 10 to 100 nM.
For the compound `Cc1cc(Cl)cc(-c2ncnc3cc(CN4C(=O)CNC4=O)sc23)c1C[C@@H]1CNCC(C)(C)O1` [Example 273, (R)-3-((4-(5-chloro-2-((6,6-dimethylmorpholin-2-yl)methyl)-3-methylphenyl)thieno[3,2-d]pyrimidin-6-yl)methyl)imidazolidine-2,4-dione], the IC50 was < 10 nM.
The value for `Cc1cc(Cl)cc(-c2ncnc3cc(CN4CCCC4=O)sc23)c1CC1CNCCO1` (stereo not drawn) [Example 174, 1-((4-(5-chloro-3-methyl-2-(morpholin-2-ylmethyl)phenyl)thieno[3,2-d]pyrimidin-6-yl)methyl)pyrrolidin-2-one] was > 100 nM.
Take `Cc1cc(Cl)cc(-c2ncnc3cc(CN4C(=O)CCC4=O)sc23)c1CC1CNCC(C)(C)O1` (stereo not drawn) [Example 190, 1-((4-(5-chloro-2-((6,6-dimethylmorpholin-2-yl)methyl)-3-methylphenyl)thieno[3,2-d]pyrimidin-6-yl)methyl)pyrrolidine-2,5-dione]: the half-maximal inhibitory concentration (IC50) is < 10 nM.
